Laboratory results taken from US10316035B2, “Triazolopyridine inhibitors of myeloperoxidase” (BRISTOL-MYERS SQUIBB COMPANY, priority 2015, dated 2019).

Target: T1, myeloperoxidase (MPO) (Homo sapiens, UniProt P05164)
T1 sequence (P05164 49-745): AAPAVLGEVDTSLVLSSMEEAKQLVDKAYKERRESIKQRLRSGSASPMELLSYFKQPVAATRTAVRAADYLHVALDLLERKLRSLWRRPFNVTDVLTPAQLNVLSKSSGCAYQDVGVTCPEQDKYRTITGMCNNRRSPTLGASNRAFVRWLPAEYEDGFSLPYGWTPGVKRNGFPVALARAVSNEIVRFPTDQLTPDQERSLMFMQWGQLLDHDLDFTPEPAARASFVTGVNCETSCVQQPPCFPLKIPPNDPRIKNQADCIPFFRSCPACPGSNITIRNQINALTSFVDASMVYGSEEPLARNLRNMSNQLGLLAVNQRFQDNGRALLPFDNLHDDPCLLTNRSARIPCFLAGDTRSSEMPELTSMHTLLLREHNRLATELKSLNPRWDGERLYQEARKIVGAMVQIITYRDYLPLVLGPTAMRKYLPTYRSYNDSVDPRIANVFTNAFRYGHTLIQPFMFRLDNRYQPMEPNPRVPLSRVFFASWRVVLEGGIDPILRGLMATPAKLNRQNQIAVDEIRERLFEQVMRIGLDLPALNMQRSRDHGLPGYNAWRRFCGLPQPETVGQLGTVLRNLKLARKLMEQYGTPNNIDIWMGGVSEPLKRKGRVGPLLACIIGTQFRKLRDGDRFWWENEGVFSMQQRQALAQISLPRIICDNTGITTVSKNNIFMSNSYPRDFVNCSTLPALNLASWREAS
Experiment: MPO peroxidation assay (Amplex Red assay)
Assay type: biochemical
Settings: MPO peroxidation, potency range class; read-out: Amplex Red IC50
How it was run: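 MPO (200 pM) with 40 nM H2O2 was preincubated 10 min at room temperature with inhibitor in 100 mM KPi pH 7.4. A mix of Amplex Red (200 μM) and H2O2 (10 mM) was then added and resorufin fluorescence read kinetically for 15 min. Slopes over 180–540 s gave % inhibition and IC50 via a four-parameter Hill fit.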

Structure (SMILES): N#Cc1ccc(-c2ccc(COc3cc(N)nc4[nH]nnc34)c(OC(F)(F)F)c2)cn1 [Example 292, 5-(4-(((5-amino-3H-[1,2,3]triazolo[4,5-b]pyridin-7-yl)oxy)methyl)-3-(trifluoromethoxy)phenyl)picolinonitrile]
- IC50: 1 to 100 nM

Structure (SMILES): CC(C)Oc1ccc(-c2ccc(COc3cc(N)nc4[nH]nnc34)c(OC(F)(F)F)c2)cn1 [Example 293, 7-((4-(6-isopropoxypyridin-3-yl)-2-(trifluoromethoxy)benzyl)oxy)-3H-[1,2,3] triazolo[4,5-b]pyridin-5-amine]
- IC50: 101 to 999 nM

Structure (SMILES): CS(=O)(=O)c1cncc(-c2ccc(COc3cc(N)nc4[nH]nnc34)c(OC(F)(F)F)c2)c1 [Example 294, 7-((4-(5-(methylsulfonyl)pyridin-3-yl)-2-(trifluoromethoxy)benzyl)oxy)-3H-[1,2,3] triazolo[4,5-b]pyridin-5-amine]
- IC50: 101 to 999 nM

Structure (SMILES): CS(=O)(=O)N1CCN(c2ccc(-c3ccc(COc4cc(N)nc5[nH]nnc45)c(OC(F)(F)F)c3)cn2)CC1 [Example 295, 7-((4-(6-(4-(methylsulfonyl)piperazin-1-yl)pyridin-3-yl)-2-(trifluoromethoxy)benzyl)oxy)-3H-[1,2,3] triazolo[4,5-b]pyridin-5-amine]
- IC50: 101 to 999 nM

Structure (SMILES): Nc1cc(OCc2ccc(-c3ccc(CO)nc3)cc2OC(F)(F)F)c2nn[nH]c2n1 [Example 296, (5-(4-(((5-amino-3H-[1,2,3]triazolo[4,5-b]pyridin-7-yl)oxy)methyl)-3-(trifluoromethoxy)phenyl)pyridin-2-yl)methanol]
- IC50: 1 to 100 nM

Structure (SMILES): Nc1cc(OCc2ccc(-c3ccc(N4CCNCC4)nc3)cc2OC(F)(F)F)c2nn[nH]c2n1 [Example 297, 7-((4-(6-(piperazin-1-yl)pyridin-3-yl)-2-(trifluoromethoxy)benzyl)oxy)-3H-[1,2,3] triazolo[4,5-b]pyridin-5-amine]
- IC50: 1 to 100 nM

Structure (SMILES): CN1CCN(c2cc(-c3ccc(COc4cc(N)nc5[nH]nnc45)c(OC(F)(F)F)c3)ccn2)CC1 [Example 299, 7-((4-(2-(4-methylpiperazin-1-yl)pyridin-4-yl)-2-(trifluoromethoxy)benzyl)oxy)-3H-[1,2,3] triazolo[4,5-b]pyridin-5-amine]
- IC50: 1 to 100 nM

Structure (SMILES): CN1CCN(c2ccc(-c3ccc(COc4cc(N)nc5[nH]nnc45)c(OC(F)(F)F)c3)cn2)CC1 [Example 300, 7-((4-(6-(4-methylpiperazin-1-yl)pyridin-3-yl)-2-(trifluoromethoxy)benzyl)oxy)-3H-[1,2,3] triazolo[4,5-b]pyridin-5-amine]
- IC50: 1 to 100 nM

Structure (SMILES): Nc1cc(OCc2ccc(-c3cccc(S(N)(=O)=O)c3)cc2OC(F)(F)F)c2nn[nH]c2n1 [Example 301, 4′-(((5-amino-3H-[1,2,3]triazolo[4,5-b]pyridin-7-yl)oxy)methyl)-3′-(trifluoromethoxy)-[1,1′-biphenyl]-3-sulfonamide]
- IC50: 1 to 100 nM

Structure (SMILES): Nc1cc(OCc2ccc(-c3ccc(Cl)nc3)cc2OC(F)(F)F)c2nn[nH]c2n1 [Example 302, 7-((4-(6-chloropyridin-3-yl)-2-(trifluoromethoxy)benzyl)oxy)-3H-[1,2,3] triazolo[4,5-b]pyridin-5-amine]
- IC50: 1 to 100 nM

Structure (SMILES): Nc1cc(OCc2ccc(-c3ccc(N4CCOCC4)nc3)cc2OC(F)(F)F)c2nn[nH]c2n1 [Example 303, 7-((4-(6-morpholinopyridin-3-yl)-2-(trifluoromethoxy)benzyl)oxy)-3H-[1,2,3] triazolo[4,5-b]pyridin-5-amine]
- IC50: 1 to 100 nM

Structure (SMILES): Nc1cc(OCc2ccc(-c3ccnc(O)c3)cc2OC(F)(F)F)c2nn[nH]c2n1 [Example 304, 4-(4-(((5-amino-3H-[1,2,3]triazolo[4,5-b]pyridin-7-yl)oxy)methyl)-3-(trifluoromethoxy)phenyl)pyridin-2-ol]
- IC50: 1 to 100 nM

Structure (SMILES): Nc1cc(OCc2ccc(-c3ccc(O)nc3)cc2OC(F)(F)F)c2nn[nH]c2n1 [Example 307, 5-(4-(((5-amino-3H-[1,2,3]triazolo[4,5-b]pyridin-7-yl)oxy)methyl)-3-(trifluoromethoxy)phenyl)pyridin-2-ol]
- IC50: 1 to 100 nM

Structure (SMILES): Nc1cc(OCc2ccc(-c3cncc(F)c3)cc2OC(F)(F)F)c2nn[nH]c2n1 [Example 308, 7-((4-(5-fluoropyridin-3-yl)-2-(trifluoromethoxy)benzyl)oxy)-3H-[1,2,3] triazolo[4,5-b]pyridin-5-amine]
- IC50: 1 to 100 nM

Structure (SMILES): COc1cc(-c2ccc(COc3cc(N)nc4[nH]nnc34)c(OC(F)(F)F)c2)c(F)cn1 [Example 309, 7-((4-(5-fluoro-2-methoxypyridin-4-yl)-2-(trifluoromethoxy)benzyl)oxy)-3H-[1,2,3] triazolo[4,5-b]pyridin-5-amine]
- IC50: 1 to 100 nM

Structure (SMILES): COc1ccc(-c2ccc(COc3cc(N)nc4[nH]nnc34)c(C#N)c2)cn1 [Example 310, 2-(((5-amino-3H-[1,2,3]triazolo[4,5-b]pyridin-7-yl)oxy)methyl)-5-(6-methoxypyridin-3-yl)benzonitrile]
- IC50: 1 to 100 nM

Structure (SMILES): N#Cc1cc(-c2ccc(N)nc2)ccc1COc1cc(N)nc2[nH]nnc12 [Example 311, 2-(((5-amino-3H-[1,2,3]triazolo[4,5-b]pyridin-7-yl)oxy)methyl)-5-(6-aminopyridin-3-yl)benzonitrile]
- IC50: 1 to 100 nM

Structure (SMILES): N#Cc1cc(-c2ccc(O)nc2)ccc1COc1cc(N)nc2[nH]nnc12 [Example 312, 2-(((5-amino-3H-[1,2,3]triazolo[4,5-b]pyridin-7-yl)oxy)methyl)-5-(6-hydroxypyridin-3-yl)benzonitrile]
- IC50: 1 to 100 nM

Structure (SMILES): N#Cc1cc(-c2ccc(CO)nc2)ccc1COc1cc(N)nc2[nH]nnc12 [Example 313, 2-(((5-amino-3H-[1,2,3]triazolo[4,5-b]pyridin-7-yl)oxy)methyl)-5-(6-(hydroxymethyl)pyridin-3-yl)benzonitrile]
- IC50: 1 to 100 nM

Structure (SMILES): COc1ncc(-c2ccc(COc3cc(N)nc4[nH]nnc34)c(C#N)c2)cn1 [Example 314, 2-(((5-amino-3H-[1,2,3]triazolo[4,5-b]pyridin-7-yl)oxy)methyl)-5-(2-methoxypyrimidin-5-yl)benzonitrile]
- IC50: 1 to 100 nM

Structure (SMILES): N#Cc1cc(-c2ccc(C(F)(F)F)nc2)ccc1COc1cc(N)nc2[nH]nnc12 [Example 315, 2-(((5-amino-3H-[1,2,3]triazolo[4,5-b]pyridin-7-yl)oxy)methyl)-5-(6-(trifluoromethyl)pyridin-3-yl)benzonitrile]
- IC50: 1 to 100 nM

Structure (SMILES): N#Cc1cc(-c2ccc(C3CC3)nc2)ccc1COc1cc(N)nc2[nH]nnc12 [Example 316, 2-(((5-amino-3H-[1,2,3]triazolo[4,5-b]pyridin-7-yl)oxy)methyl)-5-(6-cyclopropylpyridin-3-yl)benzonitrile]
- IC50: 1 to 100 nM

Structure (SMILES): CN(C)c1ncc(-c2ccc(COc3cc(N)nc4[nH]nnc34)c(C#N)c2)cn1 [Example 317, 2-(((5-amino-3H-[1,2,3]triazolo[4,5-b]pyridin-7-yl)oxy)methyl)-5-(2-(dimethylamino)pyrimidin-5-yl)benzonitrile]
- IC50: 1 to 100 nM

Structure (SMILES): CC(=O)N1CCN(c2ccc(-c3ccc(COc4cc(N)nc5[nH]nnc45)c(C#N)c3)cn2)CC1 [Example 318, 5-(6-(4-acetylpiperazin-1-yl)pyridin-3-yl)-2-(((5-amino-3H-[1,2,3]triazolo[4,5-b]pyridin-7-yl)oxy)methyl) benzonitrile]
- IC50: 1 to 100 nM

Structure (SMILES): CN1CCN(c2ccc(-c3ccc(COc4cc(N)nc5[nH]nnc45)c(C#N)c3)cn2)CC1 [Example 319, 2-(((5-amino-3H-[1,2,3]triazolo[4,5-b]pyridin-7-yl)oxy)methyl)-5-(6-(4-methylpiperazin-1-yl)pyridin-3-yl)benzonitrile]
- IC50: 1 to 100 nM

Structure (SMILES): N#Cc1cc(-c2ccc(N3CCCCC3)nc2)ccc1COc1cc(N)nc2[nH]nnc12 [Example 320, 2-(((5-amino-3H-[1,2,3]triazolo[4,5-b]pyridin-7-yl)oxy)methyl)-5-(6-(piperidin-1-yl)pyridin-3-yl)benzonitrile]
- IC50: 101 to 999 nM

Structure (SMILES): CN1CCN(c2ncc(-c3ccc(COc4cc(N)nc5[nH]nnc45)c(C#N)c3)cn2)CC1 [Example 321, 2-(((5-amino-3H-[1,2,3]triazolo[4,5-b]pyridin-7-yl)oxy)methyl)-5-(2-(4-methylpiperazin-1-yl)pyrimidin-5-yl)benzonitrile]
- IC50: 1 to 100 nM

Structure (SMILES): CS(=O)(=O)c1cncc(-c2ccc(COc3cc(N)nc4[nH]nnc34)c(C#N)c2)c1 [Example 322, 2-(((5-amino-3H-[1,2,3]triazolo[4,5-b]pyridin-7-yl)oxy)methyl)-5-(5-(methylsulfonyl)pyridin-3-yl)benzonitrile]
- IC50: 1 to 100 nM

Structure (SMILES): COc1ncc(-c2ccc(COc3cc(N)nc4[nH]nnc34)c(C#N)c2)cc1F [Example 323, 2-(((5-amino-3H-[1,2,3]triazolo[4,5-b]pyridin-7-yl)oxy)methyl)-5-(5-fluoro-6-methoxypyridin-3-yl)benzonitrile]
- IC50: 1 to 100 nM

Structure (SMILES): N#Cc1cc(-c2ccc(F)nc2F)ccc1COc1cc(N)nc2[nH]nnc12 [Example 324, 2-(((5-amino-3H-[1,2,3]triazolo[4,5-b]pyridin-7-yl)oxy)methyl)-5-(2,6-difluoropyridin-3-yl)benzonitrile]
- IC50: 1 to 100 nM
